Laboratory results: US7511133B2, “Adenosine A3 receptor agonists” (King Pharmaceuticals Research and Development, Inc., priority 2003, dated 2009)

Assays:
A3 receptor = conditions: cited from earlier work
human A1 receptors = target: T1, human A1 receptors (Homo sapiens, UniProt P30542); assay: [^3H] DPCPX binding to human A1 receptors expressed in CHO cells (antagonist radioligand); conditions: human A1, CHO cells, antagonist radioligand; read-out: [^3H] DPCPX binding to human A1 receptors expressed in CHO cells Ki
T1 construct: expressed in transfected cells; host or cells: CHO cells
T1 sequence (P30542 1-326): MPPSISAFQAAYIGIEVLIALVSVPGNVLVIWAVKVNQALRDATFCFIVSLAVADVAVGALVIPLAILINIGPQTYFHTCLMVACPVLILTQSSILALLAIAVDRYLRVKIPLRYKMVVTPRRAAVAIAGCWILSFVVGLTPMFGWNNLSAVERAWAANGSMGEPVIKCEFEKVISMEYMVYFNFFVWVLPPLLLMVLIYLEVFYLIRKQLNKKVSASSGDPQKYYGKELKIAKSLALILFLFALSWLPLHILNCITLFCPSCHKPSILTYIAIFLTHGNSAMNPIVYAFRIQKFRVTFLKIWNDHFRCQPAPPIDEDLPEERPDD
Protocol: Binding assay methodology for the human data with antagonist radioligands. […] Arch. […] The cells were grown adherently and maintained in Dulbecco's Modified Eagles Medium with nutrient mixture F12 (DMEM/F12) without nucleosides, containing 10% fetal calf serum, penicillin (100 U/ml), streptomycin (100 μg/ml), L-glutamine (2 mM) and Geneticin (G418, 0.2 mg/ml) at 37° C. in 5% CO2/95% air. Cells were split 2 or 3 times weekly at a ratio between 1:5 and 1:20. For membrane preparation the culture medium was removed and the cells were washed with PBS and scraped off T75 flasks in ice-cold hypotonic buffer (5 mM Tris HCl, 2 mM EDTA, pH 7.4). The cell suspension was homogenized with Polytron and the homogenate was spun for 10 min at 1,000×g. The supernatant was then centrifuged for 30 min at 100,000×g. The membrane pellet was resuspended in 50 mM Tris HCl buffer pH 7.4 (for A3 adenosine receptors: 50 mM Tris HCl, 10 mM MgCl2, 1 mM EDTA) and incubated with 3 UI/ml of Adenosine deaminase for 30 min at 37° C. Then the suspension was frozen at −80° C. HEK 293 cells transfected with the human recombinant A2B adenosine receptor were obtained from Receptor Biology, Inc. (Beltsville, Md., USA).
Displacement experiments were performed for 120 min at 25° C. in 0.2 ml of 50 mM Tris HCl buffer pH 7.4 containing 1 nM [3H]-DPCPX, diluted membranes (50 μg of protein/assay) and at least 6-8 different concentrations of antagonists studied. Non-specific binding was determined in the presence of 10 μM of CHA and this was always ≦10% of the total binding.

[1] = target: T2, human A2A adenosine receptors (Homo sapiens, UniProt P29274); assay: Displacement of [^3H]CGS21680 binding, human A2A adenosine receptors in CHO cells (agonist radioligand); conditions: human A2A, CHO cells, [^3H]CGS21680; read-out: Ki(A2A). Displacement of [^3H]CGS21680 binding to human A2A adenosine receptors exp. in CHO cells.
T2 construct: expressed in transfected cells; host or cells: CHO cells

[2] = target: T3, human A1 adenosine receptors (Homo sapiens, UniProt P30542); assay: Displacement of [^3H]CHA binding, human A1 adenosine receptors in CHO cells (agonist radioligand)
T3 sequence (P30542 1-326): T1 sequence (P30542 1-326)

[3] = target: T4, human A3 adenosine receptors (Homo sapiens, UniProt P0DMS8); conditions: for A1/A3: ratio Ki(A1)/Ki(A3), agonist radioligands
T4 sequence (P0DMS8 1-318): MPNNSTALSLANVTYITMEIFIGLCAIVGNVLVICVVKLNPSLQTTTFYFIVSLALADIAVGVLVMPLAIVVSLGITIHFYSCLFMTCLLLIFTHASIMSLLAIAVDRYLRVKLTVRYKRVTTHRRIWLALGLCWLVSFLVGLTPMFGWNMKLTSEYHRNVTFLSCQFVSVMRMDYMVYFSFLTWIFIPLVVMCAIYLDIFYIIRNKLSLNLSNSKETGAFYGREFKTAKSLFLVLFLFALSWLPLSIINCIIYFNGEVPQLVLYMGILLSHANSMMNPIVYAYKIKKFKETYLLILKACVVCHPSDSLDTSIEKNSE

human hA2B receptors = target: T5, human hA2B receptors (Homo sapiens, UniProt P29275); assay: [^3H] DPCPX binding to human hA2B receptors expressed in HEK293 cells (antagonist radioligand); conditions: human A2B, HEK293 cells, antagonist radioligand; read-out: [^3H] DPCPX binding to human hA2B receptors expressed in HEK293 cells Ki
T5 construct: host or cells: HEK 293 cells
T5 sequence (P29275 1-332): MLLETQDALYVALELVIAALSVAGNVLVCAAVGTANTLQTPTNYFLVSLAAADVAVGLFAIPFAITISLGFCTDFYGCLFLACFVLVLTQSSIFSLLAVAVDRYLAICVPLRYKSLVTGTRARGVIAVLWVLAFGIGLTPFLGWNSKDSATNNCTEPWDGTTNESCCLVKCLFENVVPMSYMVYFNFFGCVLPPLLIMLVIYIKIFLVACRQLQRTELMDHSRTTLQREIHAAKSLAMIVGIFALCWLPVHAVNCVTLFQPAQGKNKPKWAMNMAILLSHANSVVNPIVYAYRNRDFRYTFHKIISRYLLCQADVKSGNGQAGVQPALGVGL
Protocol: (§1) Binding assay methodology for the human data with antagonist radioligands. […] Arch. Pharmacol. 357: 1-9, (1998). The cells were grown adherently and maintained in Dulbecco's Modified Eagles Medium with nutrient mixture F12 (DMEM/F12) without nucleosides, containing 10% fetal calf serum, penicillin (100 U/ml), streptomycin (100 μg/ml), L-glutamine (2 mM) and Geneticin (G418, 0.2 mg/ml) at 37° C. in 5% CO2/95% air. Cells were split 2 or 3 times weekly at a ratio between 1:5 and 1:20. For membrane preparation the culture medium was removed and the cells were washed with PBS and scraped off T75 flasks in ice-cold hypotonic buffer (5 mM Tris HCl, 2 mM EDTA, pH 7.4). The cell suspension was homogenized with Polytron and the homogenate was spun for 10 min at 1,000×g. The supernatant was then centrifuged for 30 min at 100,000×g. The membrane pellet was resuspended in 50 mM Tris HCl buffer pH 7.4 (for A3 adenosine receptors: 50 mM Tris HCl, 10 mM MgCl2, 1 mM EDTA) and incubated with 3 UI/ml of Adenosine deaminase for 30 min at 37° C. Then the suspension was frozen at −80° C. HEK 293 cells transfected with the human recombinant A2B adenosine receptor were obtained from Receptor Biology, Inc. (Beltsville, Md., USA).
Competition experiments of [^3H]-DPCPX to HEK-293 cells transfected with the human recombinant A^2B adenosine receptor were performed for 60 min at 25° C. in 0.1 ml of 50 mM Tris HCl buffer, 10 mM MgCl2, 1 mM EDTA, 0.1 mM benzamidine pH 7.4, 2 IU/ml adenosine deaminase containing 34 nM [^3H]-DPCPX, diluted membranes (20 μg of protein/assay) and at least 6-8 different concentrations of selected compounds.

human A2A receptors = target: T6, human A2A receptors (Homo sapiens, UniProt P29274); assay: [^3H] SCH58261 binding to human A2A receptors expressed in CHO cells (antagonist radioligand); conditions: human A2A, CHO cells, antagonist radioligand; read-out: [^3H] SCH58261 binding to human A2A receptors expressed in CHO cells Ki
T6 construct: expressed in transfected cells; host or cells: CHO cells
Protocol: as §1
Binding of [^3H]-SCH 58261 to CHO cells transfected with the human recombinant A2A adenosine receptors (50 μg of protein/assay) was performed using 0.2 ml 50 mM Tris HCl buffer, 10 mM MgCl2 pH 7.4 and at least 6-8 different concentrations of antagonists studied for an incubation time of 30 min at 25° C.

human A3 receptors = target: T7, human A3 receptors (Homo sapiens, UniProt P0DMS8); assay: [^3H] MRE3008F20 binding to human A3 receptors expressed in CHO cells (antagonist radioligand); conditions: human A3, CHO cells, antagonist radioligand; read-out: [^3H] MRE3008F20 binding to human A3 receptors expressed in CHO cells Ki
T7 construct: expressed in transfected cells; host or cells: CHO cells
T7 sequence (P0DMS8 1-318): T4 sequence (P0DMS8 1-318)
Protocol: as §1
Binding of [^3H]-MRE 3008F20 to CHO cells transfected with the human recombinant A3 adenosine receptors was performed according to Varani et al., 2000. Competition experiments were carried out in duplicate in a final volume of […] in test tubes containing 1 nM [^3H]-MRE 3008F20, 50 mM Tris HCl buffer, 10 mM MgCl2, 1 mM EDTA pH 7.4 and 100 μl of diluted membranes (50 μg of protein/assay) and at least 8-10 different concentrations of examined antagonists. Incubation time was 120 min at 4° C., according to the results of previous time-course experiments.

T2 sequence (P29274 whole entry): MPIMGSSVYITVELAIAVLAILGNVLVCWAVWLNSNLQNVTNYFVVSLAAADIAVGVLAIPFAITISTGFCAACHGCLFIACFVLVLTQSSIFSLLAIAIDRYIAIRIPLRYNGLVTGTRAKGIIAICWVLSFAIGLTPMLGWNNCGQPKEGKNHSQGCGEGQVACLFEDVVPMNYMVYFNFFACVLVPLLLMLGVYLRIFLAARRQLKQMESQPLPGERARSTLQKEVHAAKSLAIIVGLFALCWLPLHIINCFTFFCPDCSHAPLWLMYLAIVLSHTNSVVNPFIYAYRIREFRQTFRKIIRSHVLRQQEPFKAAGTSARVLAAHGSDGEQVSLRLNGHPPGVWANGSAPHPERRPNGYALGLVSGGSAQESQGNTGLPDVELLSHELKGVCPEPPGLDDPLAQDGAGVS
T6 sequence (P29274 whole entry): as above

| SMILES | selective for the A3 receptor versus either the A1 or A2A receptors (A3 receptor) [fold] | Ki (human A1 receptors) [nM] | Ki [1] [nM] | Ki [2] [nM] | Ki [3] [nM] | A1/A3 [3] | melting point | Ki (human hA2B receptors) [nM] | Ki (human A2A receptors) [nM] | Ki (human A3 receptors) [nM] |
| --- | --- | --- | --- | --- | --- | --- | --- | --- | --- | --- |
| CNC(=O)[C@H]1O[C@@H](n2cnc3c(NCc4cccc(I)c4)ncnc32)[C@H](O)[C@@H]1O [IB-MECA, N^6-(3-iodo-benzyl)-adenosine-5′-N-methyl-uronamide] | 50 |  |  |  |  |  |  |  |  |  |
| CCNC(=O)[C@H]1O[C@@H](n2cnc3c(NC(=O)Nc4ccc(S(=O)(=O)NCC)cc4)ncnc32)[C@H](O)[C@@H]1O [Compound 85, 1-Deoxy-1-[6-[[[[4-[N-(ethyl)aminosulfonyl]phenyl]amino]-carbonyl]amino]-9H-purin-9-yl]-N-ethyl-β-D-ribofuranuronamide] |  | > 1000 | > 1000 | 250 | 23 | 10.86 | 180 to 183 °C | > 1000 | > 1000 | 237 |
| CCNC(=O)[C@H]1O[C@@H](n2cnc3c(NC(=O)Nc4ccc(S(=O)(=O)N5CCOCC5)cc4)ncnc32)C(O)C1O (stereo partly drawn) [Compound 84, 1-Deoxy-1-[6-[[[[4-[(morpholine-1-yl)sulfonyl]phenyl]amino]carbonyl]amino]-9H-purin-9-yl]-N-ethyl-β-D-ribofuranuronamide] |  | > 1000 | > 1000 | 725 | 20 | 36.25 | 204 to 205 °C | > 1000 | > 1000 | 198 |
| CCNC(=O)[C@H]1O[C@@H](n2cnc3c(NC(=O)Nc4ccc(S(=O)(=O)NC5CC5)cc4)ncnc32)[C@H](O)[C@@H]1O [Compound 89, 1-Deoxy-1-[6-[[[[4-[N-(cyclopropyl)aminosulfonyl]phenyl]amino]-carbonyl]-amino]-9H-purin-9-yl]-N-ethyl-β-D-ribofuranuronamide] |  | > 1000 | > 1000 | 290 | 25 | 11.6 | 180 °C (dec.) | > 1000 | > 1000 | 340 |
| CCNC(=O)[C@H]1O[C@@H](n2cnc3c(NC(=O)Nc4ccc(S(=O)(=O)NC(C)(C)C)cc4)ncnc32)[C@H](O)[C@@H]1O [Compound 92, 1-Deoxy-1-[6-[[[[4-[N-(1,1-dimethylethyl)aminosulfonyl]phenyl]amino]-carbonyl]amino]-9H-purin-9-yl]-N-ethyl-β-D-ribofuranuronamide] |  | > 1000 | > 1000 | 250 | 20 | 12.5 | 185 °C | > 1000 | > 1000 | 330 |
| CCNC(=O)[C@H]1O[C@@H](n2cnc3c(NC(=O)Nc4ccc(S(=O)(=O)NC56CC7CC(CC(C7)C5)C6)cc4)ncnc32)[C@H](O)[C@@H]1O [Compound 93, 1-Deoxy-1-[6-[[[[4-[N-(adamantan-1-yl)sulfonyl]phenyl]amino]carbonyl]-amino]-9H-purin-9-yl]-N-ethyl-β-D-ribofuranuronamide] |  | > 1000 | > 1000 | 240 | 35 | 7.5 | 192 °C | > 1000 | > 1000 | 310 |
